Literature values as cited in article PMC4760439, “Glicentin‐related pancreatic polypeptide inhibits glucose‐stimulated insulin secretion from the isolated pancreas of adult male rats” (Physiological Reports, 2015).
No end group written: not given here.

System: pancreatic β‐cell
Settings: ref Metz et al. 1983; Zielmann et al. 1985; Holst et al. 1987; Shima et al. 1988; Goke et al. 1989; Ishizuka et al. 1991; Jia et al. 1995; Vahl et al. 2003; cited from earlier work

Substance: glucagon‐like peptide 1 (HAEGTFTSDVSSYLEGQAAKEFIAWLVKGR; ends and bridges not checked; UniProt P01275 98-127, looked up) [GLP‐1, incretin; literature statement, form not specified]
- GSIS (action on pancreatic β‐cell): enhance glucose‐stimulated insulin secretion
